Reference: patent US20070287752A1, “Ophthalmic Compositions Comprising A Branched, Glycerol Compound” (priority 2006, published 2007)

Columns and labels:
[1] = system: Gram-positive bacteria such as Micrococcus luteus, Corynebacterium aquaticum, Corynebacteriumflavescens, Corynebacterium callunae, and Corynebacterium nephredi; details: cited from earlier work
[2] = system: Pseudomonas aeruginosa (ATCC 9027); experiment: Preservative/disinfectant system efficacy testing (log reduction); assay type: cell-based
Method: (§1) The ophthalmic compositions are evaluated in accordance with specific procedures outlined by the US Food & Drug Administration and the International Organization for Standardization for the testing of microbiocidal efficacy.

[3] = system: Candida albicans (ATCC 10231); experiment: as above; assay type: cell-based
Method: as §1

[4] = system: Staphylococcus aureus (ATCC 6538); experiment: as above; assay type: cell-based
Method: as §1

[5] = system: Serratia marcescens (ATCC 13880); experiment: as above; assay type: cell-based
Method: as §1

[6] = system: Pseudomonas aeruginosa, Staphylococcus aureus, Serratia marcescens, Candida albicans and Fusarium solani; details: biocidal data from Examples 1, 2 and 3
Method: as §1

[7] = 1 hr, Table 5A multi-purpose lens care solution, 10% organic soil, disinfectant concentrations as in label
[8] = 1 hr, phosphate buffered saline, 10% organic soil, concentrations as in label (Table 4)
[9] = 4 hr, Table 5A multi-purpose lens care solution, 10% organic soil, disinfectant concentrations as in label
[10] = 4 hr, phosphate buffered saline, 10% organic soil, concentrations as in label (Table 4)
[11] = EHOPD 0.0001 wt %, 1 hr, borate buffered saline, 10% organic soil
[12] = EHOPD 0.0001 wt %, 1 hr, phosphate buffered saline, 10% Organic Soil
[13] = EHOPD 0.0001 wt %, 4 hr, borate buffered saline, 10% organic soil
[14] = EHOPD 0.0001 wt %, 4 hr, phosphate buffered saline, 10% Organic Soil
[15] = EHOPD 0.001 wt %, 1 hr, borate buffered saline, 10% organic soil
[16] = EHOPD 0.001 wt %, 1 hr, phosphate buffered saline, 10% Organic Soil
[17] = EHOPD 0.001 wt %, 4 hr, borate buffered saline, 10% organic soil
[18] = EHOPD 0.001 wt %, 4 hr, phosphate buffered saline, 10% Organic Soil
[19] = EHOPD 0.01 wt %, 1 hr, Table 3A multi-purpose lens care formulation, 10% organic soil
[20] = EHOPD 0.01 wt %, 1 hr, borate buffered saline, 10% organic soil
[21] = EHOPD 0.01 wt %, 1 hr, phosphate buffered saline, 10% Organic Soil
[22] = EHOPD 0.01 wt %, 4 hr, Table 3A multi-purpose lens care formulation, 10% organic soil
[23] = EHOPD 0.01 wt %, 4 hr, borate buffered saline, 10% organic soil
[24] = EHOPD 0.01 wt %, 4 hr, phosphate buffered saline, 10% Organic Soil
[25] = EHOPD 0.1 wt %, 1 hr, Table 3A multi-purpose lens care formulation, 10% organic soil
[26] = EHOPD 0.1 wt %, 1 hr, borate buffered saline, 10% organic soil
[27] = EHOPD 0.1 wt %, 1 hr, phosphate buffered saline, 10% Organic Soil
[28] = EHOPD 0.1 wt %, 4 hr, Table 3A multi-purpose lens care formulation, 10% organic soil
[29] = EHOPD 0.1 wt %, 4 hr, borate buffered saline, 10% organic soil
[30] = EHOPD 0.1 wt %, 4 hr, phosphate buffered saline, 10% Organic Soil
[31] = EHOPD 0.15 wt %, 1 hr, Table 3A multi-purpose lens care formulation, 10% organic soil
[32] = EHOPD 0.15 wt %, 4 hr, Table 3A multi-purpose lens care formulation, 10% organic soil
[33] = EHOPD 0.25 wt %, 1 hr, Table 3A multi-purpose lens care formulation, 10% organic soil
[34] = EHOPD 0.25 wt %, 4 hr, Table 3A multi-purpose lens care formulation, 10% organic soil
[35] = EHOPD 0.50 wt %, 1 hr, Table 3A multi-purpose lens care formulation, 10% organic soil
[36] = EHOPD 0.5 wt %, 1 hr, borate buffered saline, 10% organic soil
[37] = EHOPD 0.5 wt %, 1 hr, phosphate buffered saline, 10% Organic Soil
[38] = EHOPD 0.50 wt %, 4 hr, Table 3A multi-purpose lens care formulation, 10% organic soil
[39] = EHOPD 0.5 wt %, 4 hr, borate buffered saline, 10% organic soil
[40] = EHOPD 0.5 wt %, 4 hr, phosphate buffered saline, 10% Organic Soil
[41] = EHOPD 0.75 wt %, 1 hr, Table 3A multi-purpose lens care formulation, 10% organic soil
[42] = EHOPD 0.75 wt %, 4 hr, Table 3A multi-purpose lens care formulation, 10% organic soil
[43] = EHOPD 1.0 wt %, 1 hr, Table 3A multi-purpose lens care formulation, 10% organic soil
[44] = EHOPD 1.0 wt %, 4 hr, Table 3A multi-purpose lens care formulation, 10% organic soil

In the case of `CCCCC(CC)COCC(O)CO` (stereo not shown) [EHOPD, 3-[(2-ethylhexyl)oxy]-1,2-propanediol], the “antimicrobial activity (known, in words)” value [1] is given as “exhibit antimicrobial activity against a variety of Gram-positive bacteria”, the “log reduction P. aeruginosa” value [2, 7] is given as 1.4 and the “log reduction P. aeruginosa” value [2, 8] is given as 1.5. The “log reduction P. aeruginosa” value [2, 9] was 1.4, the “log reduction P. aeruginosa” value [2, 10] was 1.5 and the “log reduction P. aeruginosa” value [2, 11] was 1.5. For the same compound, the “log reduction P. aeruginosa” value [2, 12] was 1.5, the “log reduction P. aeruginosa” value [2, 13] was 1.5 and the “log reduction P. aeruginosa” value [2, 14] was 1.5. The “log reduction P. aeruginosa” value [2, 15] was 1.5, the “log reduction P. aeruginosa” value [2, 16] was 1.5 and the “log reduction P. aeruginosa” value [2, 17] was 1.5. For the same compound, the “log reduction P. aeruginosa” value [2, 18] was 1.5, the “log reduction P. aeruginosa” value [2, 19] was 1.9 and the “log reduction P. aeruginosa” value [2, 20] was 2.6. The “log reduction P. aeruginosa” value [2, 21] was 1.5, the “log reduction P. aeruginosa” value [2, 22] was 1.9 and the “log reduction P. aeruginosa” value [2, 23] was >5.0. The “log reduction P. aeruginosa” value [2, 24] was 1.5, the “log reduction P. aeruginosa” value [2, 25] was >5.4 and the “log reduction P. aeruginosa” value [2, 26] was >5.0. For the same compound, the “log reduction P. aeruginosa” value [2, 27] was 1.5, the “log reduction P. aeruginosa” value [2, 28] was >5.4 and the “log reduction P. aeruginosa” value [2, 29] was >5.0. For the same compound, the “log reduction P. aeruginosa” value [2, 30] was 3.7, the “log reduction P. aeruginosa” value [2, 31] was >5.4 and the “log reduction P. aeruginosa” value [2, 32] was >5.4. The “log reduction P. aeruginosa” value [2, 33] was >5.4, the “log reduction P. aeruginosa” value [2, 34] was >5.4 and the “log reduction P. aeruginosa” value [2, 35] was >5.4. The “log reduction P. aeruginosa” value [2, 36] was >5.0, the “log reduction P. aeruginosa” value [2, 37] was 1.5 and the “log reduction P. aeruginosa” value [2, 38] was >5.4. For the same compound, the “log reduction P. aeruginosa” value [2, 39] was >5.0, the “log reduction P. aeruginosa” value [2, 40] was 4.1 and the “log reduction P. aeruginosa” value [2, 41] was >5.4. For the same compound, the “log reduction P. aeruginosa” value [2, 42] was >5.4, the “log reduction P. aeruginosa” value [2, 43] was >5.4 and the “log reduction P. aeruginosa” value [2, 44] was >5.4. For the same compound, the “log reduction C. albicans” value [3, 7] was 2.1, the “log reduction C. albicans” value [3, 8] was >5.0 and the “log reduction C. albicans” value [3, 9] was 2.8. For the same compound, the “log reduction C. albicans” value [3, 10] was >5.0, the “log reduction C. albicans” value [3, 11] was 2.3 and the “log reduction C. albicans” value [3, 12] was 2.3. The “log reduction C. albicans” value [3, 13] was 2.3, the “log reduction C. albicans” value [3, 14] was 2.3 and the “log reduction C. albicans” value [3, 15] was 2.3. The “log reduction C. albicans” value [3, 16] was 2.3, the “log reduction C. albicans” value [3, 17] was 2.3 and the “log reduction C. albicans” value [3, 18] was 2.3. The “log reduction C. albicans” value [3, 19] was 2.0, the “log reduction C. albicans” value [3, 20] was 2.3 and the “log reduction C. albicans” value [3, 21] was 2.3. The “log reduction C. albicans” value [3, 22] was 2.0, the “log reduction C. albicans” value [3, 23] was 2.3 and the “log reduction C. albicans” value [3, 24] was 2.3. The “log reduction C. albicans” value [3, 25] was 2.0, the “log reduction C. albicans” value [3, 26] was 5.4 and the “log reduction C. albicans” value [3, 27] was 3.8. For the same compound, the “log reduction C. albicans” value [3, 28] was 2.0, the “log reduction C. albicans” value [3, 29] was >5.7 and the “log reduction C. albicans” value [3, 30] was >5.7. For the same compound, the “log reduction C. albicans” value [3, 31] was 2.0, the “log reduction C. albicans” value [3, 32] was 2.0 and the “log reduction C. albicans” value [3, 33] was 2.0. For the same compound, the “log reduction C. albicans” value [3, 34] was 2.0, the “log reduction C. albicans” value [3, 35] was 2.0 and the “log reduction C. albicans” value [3, 36] was 5.1. The “log reduction C. albicans” value [3, 37] was 3.8, the “log reduction C. albicans” value [3, 38] was 3.1 and the “log reduction C. albicans” value [3, 39] was >5.7. For the same compound, the “log reduction C. albicans” value [3, 40] was >5.7, the “log reduction C. albicans” value [3, 41] was 4.2 and the “log reduction C. albicans” value [3, 42] was >5.5. The “log reduction C. albicans” value [3, 43] was >5.5, the “log reduction C. albicans” value [3, 44] was >5.5 and the “log reduction S. aureus” value [4, 7] was 1.2. For the same compound, the “log reduction S. aureus” value [4, 8] was 1.2, the “log reduction S. aureus” value [4, 9] was 1.2 and the “log reduction S. aureus” value [4, 10] was 1.3. For the same compound, the “log reduction S. aureus” value [4, 11] was 1.4, the “log reduction S. aureus” value [4, 12] was 1.4 and the “log reduction S. aureus” value [4, 13] was 1.4. The “log reduction S. aureus” value [4, 14] was 1.4, the “log reduction S. aureus” value [4, 15] was 1.4 and the “log reduction S. aureus” value [4, 16] was 1.4. The “log reduction S. aureus” value [4, 17] was 1.4, the “log reduction S. aureus” value [4, 18] was 1.4 and the “log reduction S. aureus” value [4, 19] was 1.4. The “log reduction S. aureus” value [4, 20] was 1.4, the “log reduction S. aureus” value [4, 21] was 1.4 and the “log reduction S. aureus” value [4, 22] was 1.4. For the same compound, the “log reduction S. aureus” value [4, 23] was 1.4, the “log reduction S. aureus” value [4, 24] was 1.4 and the “log reduction S. aureus” value [4, 25] was 1.4. For the same compound, the “log reduction S. aureus” value [4, 26] was 1.7, the “log reduction S. aureus” value [4, 27] was 1.4 and the “log reduction S. aureus” value [4, 28] was 1.4. The “log reduction S. aureus” value [4, 29] was 4.0, the “log reduction S. aureus” value [4, 30] was 3.0 and the “log reduction S. aureus” value [4, 31] was 1.4. The “log reduction S. aureus” value [4, 32] was 1.4, the “log reduction S. aureus” value [4, 33] was 1.4 and the “log reduction S. aureus” value [4, 34] was 1.4. The “log reduction S. aureus” value [4, 35] was 1.4, the “log reduction S. aureus” value [4, 36] was 1.8 and the “log reduction S. aureus” value [4, 37] was 1.4. For the same compound, the “log reduction S. aureus” value [4, 38] was 1.8, the “log reduction S. aureus” value [4, 39] was 4.3 and the “log reduction S. aureus” value [4, 40] was 3.1. For the same compound, the “log reduction S. aureus” value [4, 41] was 1.6, the “log reduction S. aureus” value [4, 42] was 3.1 and the “log reduction S. aureus” value [4, 43] was 2.2. For the same compound, the “log reduction S. aureus” value [4, 44] was 3.7, the “log reduction S. marcescens” value [5, 7] was 2.3 and the “log reduction S. marcescens” value [5, 8] was 3.0. For the same compound, the “log reduction S. marcescens” value [5, 9] was 3.3, the “log reduction S. marcescens” value [5, 10] was 3.9 and the “log reduction S. marcescens” value [5, 11] was 1.7. For the same compound, the “log reduction S. marcescens” value [5, 12] was 1.7, the “log reduction S. marcescens” value [5, 13] was 1.7 and the “log reduction S. marcescens” value [5, 14] was 1.7. For the same compound, the “log reduction S. marcescens” value [5, 15] was 1.7, the “log reduction S. marcescens” value [5, 16] was 1.7 and the “log reduction S. marcescens” value [5, 17] was 1.7. The “log reduction S. marcescens” value [5, 18] was 3.2, the “log reduction S. marcescens” value [5, 19] was 2.0 and the “log reduction S. marcescens” value [5, 20] was 1.7. For the same compound, the “log reduction S. marcescens” value [5, 21] was >5.2, the “log reduction S. marcescens” value [5, 22] was 2.0 and the “log reduction S. marcescens” value [5, 23] was 1.7. For the same compound, the “log reduction S. marcescens” value [5, 24] was >5.2, the “log reduction S. marcescens” value [5, 25] was 2.0 and the “log reduction S. marcescens” value [5, 26] was 4.8. For the same compound, the “log reduction S. marcescens” value [5, 27] was >5.2, the “log reduction S. marcescens” value [5, 28] was 2.0 and the “log reduction S. marcescens” value [5, 29] was >5.2. The “log reduction S. marcescens” value [5, 30] was >5.2, the “log reduction S. marcescens” value [5, 31] was 2.0 and the “log reduction S. marcescens” value [5, 32] was 4.7. For the same compound, the “log reduction S. marcescens” value [5, 33] was >5.4, the “log reduction S. marcescens” value [5, 34] was >5.4 and the “log reduction S. marcescens” value [5, 35] was >5.4. The “log reduction S. marcescens” value [5, 36] was 4.9, the “log reduction S. marcescens” value [5, 37] was >5.2 and the “log reduction S. marcescens” value [5, 38] was >5.4. The “log reduction S. marcescens” value [5, 39] was >5.2, the “log reduction S. marcescens” value [5, 40] was >5.2 and the “log reduction S. marcescens” value [5, 41] was >5.4. The “log reduction S. marcescens” value [5, 42] was >5.4, the “log reduction S. marcescens” value [5, 43] was >5.4 and the “log reduction S. marcescens” value [5, 44] was >5.4. For the same compound, the “biocidal activity (in words)” value [6] was “significant activity against all of the microorganisms in the study”.
